Test results: US20230093099A1, “COMPOUNDS AND METHODS OF TREATING CANCERS” (CULLGEN (SHANGHAI), INC., priority 2019, published 2023)

Legend:
Type in all cases: cell-based
MOLM-13 cells = assay: Cell viability assay (CellTiter-Glo) in MOLM-13 cells; conditions: Homo sapiens, 72 h, MOLM-13, AML, 3 days
Method: (§1) MV4;11, RS4;11, Kasumi-1, HEL and other cells were treated with NVP-BSK805, TG101209 or selected degraders for 3 days at indicated concentrations following a 3-fold serial dilution.
(§2) HEL, RS4;11, MV4;11, Kasumi-1 and other cells were cultured at 37° C. with 5% CO2 in RPMI 1640 or DMEM Medium supplemented with 10% fetal bovine serum. Cells were authenticated using the short tandem repeat (STR) assays. Mycoplasma test results were negative.
(§3) Cells were seeded at a density of 5000 cells per well in 96-well assay plates and treated with test compounds following a 8-point or 12-point 3-fold serial dilution. Three days later, cell viability was determined using the CellTiter-Glo assay kit according to the manufacturer's instructions. The dose-response curves were determined and IC50 values were calculated using the GraphPad Prism software following a nonlinear regression (least squares fit) method.

JAK3 = biological target: T1, JAK3 (Homo sapiens, UniProt P52333); assay: Immunoblot of JAK3 protein level in RS4;11 cells; conditions: immunoblot (FIG. 2)
T1 construct: immunoblot of JAK1/2/3 proteins expressed in HEL cells; endogenous in cells; host or cells: HEL cells
T1 sequence (P52333 1-1124): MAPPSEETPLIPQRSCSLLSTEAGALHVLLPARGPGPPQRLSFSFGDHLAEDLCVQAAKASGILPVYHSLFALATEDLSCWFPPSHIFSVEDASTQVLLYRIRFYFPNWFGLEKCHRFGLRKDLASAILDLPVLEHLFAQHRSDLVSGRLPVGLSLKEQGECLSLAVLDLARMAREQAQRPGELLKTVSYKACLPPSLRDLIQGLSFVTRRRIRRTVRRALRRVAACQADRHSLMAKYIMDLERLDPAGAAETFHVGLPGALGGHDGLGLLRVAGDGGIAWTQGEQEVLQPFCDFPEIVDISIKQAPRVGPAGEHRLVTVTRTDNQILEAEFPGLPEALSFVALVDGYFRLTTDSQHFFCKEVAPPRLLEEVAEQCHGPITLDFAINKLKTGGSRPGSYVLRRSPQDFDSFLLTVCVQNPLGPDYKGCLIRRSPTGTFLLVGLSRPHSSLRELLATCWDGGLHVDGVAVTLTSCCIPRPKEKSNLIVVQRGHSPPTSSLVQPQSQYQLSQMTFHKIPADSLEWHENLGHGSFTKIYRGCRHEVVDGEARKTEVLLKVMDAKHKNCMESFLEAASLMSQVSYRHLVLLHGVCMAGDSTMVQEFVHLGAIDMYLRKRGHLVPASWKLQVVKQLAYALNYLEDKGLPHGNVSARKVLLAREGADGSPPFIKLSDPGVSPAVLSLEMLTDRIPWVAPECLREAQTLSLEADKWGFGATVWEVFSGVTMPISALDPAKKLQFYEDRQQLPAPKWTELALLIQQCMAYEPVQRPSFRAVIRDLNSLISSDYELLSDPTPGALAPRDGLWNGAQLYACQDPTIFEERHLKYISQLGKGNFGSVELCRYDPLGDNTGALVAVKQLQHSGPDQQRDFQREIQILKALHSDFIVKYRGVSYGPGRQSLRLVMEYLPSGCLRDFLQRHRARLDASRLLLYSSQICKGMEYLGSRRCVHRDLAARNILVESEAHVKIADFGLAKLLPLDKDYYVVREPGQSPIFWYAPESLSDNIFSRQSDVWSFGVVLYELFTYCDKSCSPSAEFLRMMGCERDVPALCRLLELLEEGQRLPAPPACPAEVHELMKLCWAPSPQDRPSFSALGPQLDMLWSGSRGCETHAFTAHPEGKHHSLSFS
Method: To confirm JA-189 and JA-213 are true JAK degraders, HEL cell were treated with these two compounds at various compounds concentrations.
as §2
(§4) Rabbit anti-JAK1 antibody (3344S), anti-JAK2 antibody (3230S), anti-JAK3 antibody (8827S), anti-TYK2 antibody (14193S), anti-FLT3 antibody (3462S), anti-RET antibody (14556S), anti-phospho-STAT3 (Tyr705) antibody (9145S) and anti-phospho-STAT5 (Tyr694) antibody (4322S) were purchased from Cell Signaling Technology. Rabbit anti-GSPT1 antibody (ab126090) was purchased from Abcam. HRP-conjugated anti-α-tubulin antibody was produced in house. Media and other cell culture reagents were purchased from Thermo Fisher. The CellTiter-Glo Luminescent Assay kit was purchased from Promega.
(§5) Cultured cells were washed with cold PBS once and lysed in cold RIPA buffer supplemented with protease inhibitors and phosphatase inhibitors (Beyotime Biotechnology). […] Total protein concentrations in the lysates were determined by BCA assays (Beyotime Biotechnology). […] Protein bands were quantitated using the accompanied software provided by Bio-Rad.

NCI-H929 cells = assay: Cell viability assay (CellTiter-Glo) in NCI-H929 cells; conditions: Homo sapiens, 72 h, NCI-H929, Multiple Myeloma, 3 days
Method: as §1, §2, §3

GSPT1 = biological target: T2, GSPT1 (Homo sapiens, UniProt P15170); assay: Immunoblot of GSPT1 protein level in RS4;11 cells; conditions: 16 hours; for GSPT1 protein level: immunoblot (FIG. 5)
T2 construct: immunoblot of GSPT1 and tubulin expressed in RS4:11 cells; endogenous in cells; host or cells: RS4;11 cells
T2 sequence (P15170 whole entry): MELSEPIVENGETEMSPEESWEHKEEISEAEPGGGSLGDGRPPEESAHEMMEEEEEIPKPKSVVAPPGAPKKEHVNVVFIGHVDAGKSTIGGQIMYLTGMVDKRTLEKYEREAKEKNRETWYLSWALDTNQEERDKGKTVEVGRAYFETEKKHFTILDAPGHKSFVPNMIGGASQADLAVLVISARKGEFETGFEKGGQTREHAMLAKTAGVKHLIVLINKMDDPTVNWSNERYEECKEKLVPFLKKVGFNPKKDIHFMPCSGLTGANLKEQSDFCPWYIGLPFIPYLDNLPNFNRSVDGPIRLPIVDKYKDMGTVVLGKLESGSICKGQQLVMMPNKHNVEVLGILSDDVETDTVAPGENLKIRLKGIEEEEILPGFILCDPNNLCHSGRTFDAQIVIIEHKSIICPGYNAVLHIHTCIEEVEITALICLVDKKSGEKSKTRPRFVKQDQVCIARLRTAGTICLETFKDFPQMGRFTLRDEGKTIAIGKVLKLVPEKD
Method: RS4;11 cells were treated with compounds at indicated concentrations for 16 hours. […] The concentrations required to reduce GSPT1 by 50% (DC50) were below 2 nM for compound JA-189 and 10 nM JA213.
as §2, §4
Cultured cells were washed with cold PBS once and lysed in cold RIPA buffer supplemented with protease inhibitors and phosphatase inhibitors (Beyotime Biotechnology). The solutions were then incubated at 4° C. for 30 minutes with gentle agitation to fully lyse cells. Cell lysates were centrifuged at 13,000 rpm for 10 minutes at 4° C. and pellets were discarded. Total protein concentrations in the lysates were determined by BCA assays (Beyotime Biotechnology). Cell lysates were mixed with Laemmli loading buffer to 1× and heated at 99° C. for 5 min. Proteins were resolved on SDS-PAGE and visualized by chemiluminescence. Images were taken by a ChemiDoc MP Imaging system (Bio-Rad). Protein bands were quantitated using the accompanied software provided by Bio-Rad.

AMO-1 cells = assay: Cell viability assay (CellTiter-Glo) in AMO-1 cells; conditions: Homo sapiens, AMO1, 72 h, AMO-1, Multiple Myeloma, 3 days
Method: as §1, §2, §3

JAK1 = biological target: T3, JAK1 (Homo sapiens, UniProt P23458); assay: Immunoblot of JAK1 protein level in HEL cells; conditions: 24 hours, immunoblot (FIG. 1)
T3 construct: immunoblot of JAK1/3 proteins expressed in RS4;11 cells; endogenous in cells; host or cells: RS4;11 cells
T3 sequence (P23458 whole entry): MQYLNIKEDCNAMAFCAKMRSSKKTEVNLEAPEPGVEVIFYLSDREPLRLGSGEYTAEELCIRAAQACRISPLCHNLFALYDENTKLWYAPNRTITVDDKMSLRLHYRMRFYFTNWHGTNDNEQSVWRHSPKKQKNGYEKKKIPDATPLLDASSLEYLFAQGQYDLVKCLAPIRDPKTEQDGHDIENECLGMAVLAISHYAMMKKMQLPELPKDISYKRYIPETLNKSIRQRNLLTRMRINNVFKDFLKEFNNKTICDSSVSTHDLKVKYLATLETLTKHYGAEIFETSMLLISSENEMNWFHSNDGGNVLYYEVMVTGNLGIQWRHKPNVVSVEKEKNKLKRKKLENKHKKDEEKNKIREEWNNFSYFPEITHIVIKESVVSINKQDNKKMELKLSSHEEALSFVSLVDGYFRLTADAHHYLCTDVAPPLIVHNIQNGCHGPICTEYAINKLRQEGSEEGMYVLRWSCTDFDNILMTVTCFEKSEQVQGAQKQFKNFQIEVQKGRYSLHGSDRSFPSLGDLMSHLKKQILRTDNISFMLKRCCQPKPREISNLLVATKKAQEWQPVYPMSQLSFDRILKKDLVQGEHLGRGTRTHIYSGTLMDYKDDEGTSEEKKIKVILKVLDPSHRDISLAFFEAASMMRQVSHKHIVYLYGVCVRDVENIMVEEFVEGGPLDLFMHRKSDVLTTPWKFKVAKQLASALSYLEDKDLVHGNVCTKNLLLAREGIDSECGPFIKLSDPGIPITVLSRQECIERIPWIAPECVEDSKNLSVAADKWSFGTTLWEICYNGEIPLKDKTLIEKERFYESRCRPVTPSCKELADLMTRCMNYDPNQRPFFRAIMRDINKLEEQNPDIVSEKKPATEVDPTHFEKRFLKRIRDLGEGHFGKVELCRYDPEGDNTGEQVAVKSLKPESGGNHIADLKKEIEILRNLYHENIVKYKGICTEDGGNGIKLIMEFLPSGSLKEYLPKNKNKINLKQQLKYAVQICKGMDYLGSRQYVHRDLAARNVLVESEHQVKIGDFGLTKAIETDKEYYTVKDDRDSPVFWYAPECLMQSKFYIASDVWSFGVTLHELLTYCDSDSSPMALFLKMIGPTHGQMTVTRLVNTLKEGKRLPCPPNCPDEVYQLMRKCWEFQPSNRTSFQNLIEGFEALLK
Method: HEL cells harboring JAK2-V617F mutation were treated with compounds at indicated concentrations for 24 hours. […] The concentrations required to reduce JAK2-V617 by 50% (DC50) were below 60 nM for compound JA-213.
as §2, §4, §5

MV4;11 cells = assay: Cell viability assay (CellTiter-Glo) in MV4;11 cells; conditions: for IC50: Homo sapiens, 72 h, MV4;11, AML, cell viability, 3 days; for cell viability inhibition in combination with pomalidomide: MV4;11, 3 days, pomalidomide at 10 μM (FIG. 4)
Method: as §1, §2, §3

Compound	IC50 (MOLM-13 cells) [nM]	JAK3 protein level (JAK3)	IC50 (NCI-H929 cells) [nM]	GSPT1 protein level (GSPT1)	DC50 (GSPT1; immunoblot, read-out: concentration required to reduce GSPT1 by 50% (DC50)) [nM]	IC50 (AMO-1 cells) [nM]	JAK1 protein level (JAK1)	IC50 (MV4;11 cells) [nM]	cell viability inhibition in combination with pomalidomide (MV4;11 cells)
O=C1CCC(N2C(=O)c3ccc(NCCCCCC(=O)N4CCC(n5cc(-c6cnc7cccc(-c8cc(F)c(CN9CCOCC9)c(F)c8)c7n6)cn5)CC4)cc3C2=O)C(=O)N1 (centres unmarked) [JA-189, 5-((6-(4-(4-(8-(3,5-difluoro-4-(morpholinomethyl)phenyl)quinoxalin-2-yl)-1H-pyrazol-1-yl)piperidin-1-yl)-6-oxohexyl)amino)-2-(2,6-dioxopiperidin-3-yl)isoindoline-1,3-dione]	20.8	even better activity in reducing the JAK1 and JAK3 protein levels	106	induced degradation of GSPT1 in a dose dependent manner	< 2	612	able to reduce JAK1, JAK2 and JAK3 protein levels	7.93	greatly reduce the potencies of the degraders
CS(=O)(=O)c1ccc(-c2cccc3nc(Nc4ccc(N5CCN(CC(=O)NCCCCCCCCNc6ccc7c(c6)C(=O)N(C6CCC(=O)NC6=O)C7=O)CC5)cc4)nn23)cc1 (centres unmarked) [JA-213]	27.4	even better activity in reducing the JAK1 and JAK3 protein levels	124	induced degradation of GSPT1 in a dose dependent manner		722	able to reduce JAK1, JAK2 and JAK3 protein levels	19.6	greatly reduce the potencies of the degraders
